Laboratory results reported in US10856562B2, “Flavor composition and edible compositions containing same” (MARS, INCORPORATED, priority 2013, dated 2020).
Square brackets hold non-standard residues; d marks the D form. Ends that are not written are not given here. pGlu = O=C1CC[C@@H](C(=O)O)N1

Test system: panelists
Test: Attribute perception scores of flavor enhancers in solution (Example 6)
Format: in vivo, human
Set-up: key to Metallic / Numbing / Atringent / Salt / Sweet / Sour / Bitter / Umami / Sour, mean evaluation score in solution / Numbing, mean evaluation score in solution / Astringent / Umami FF: 15-point intensity scale, 0 = none, 15 = very strong
Conditions: for Astringent, mean evaluation score in solution / Bitter, mean evaluation score in solution / Flinty/Mineral, mean evaluation score in solution / Metallic, mean evaluation score in solution / Numbing, mean evaluation score in solution / Salt, mean evaluation score in solution / Sour, mean evaluation score in solution / Sweet, mean evaluation score in solution / Umami FF, mean evaluation score in solution / Umami, mean evaluation score in solution / Atringent / Bitter / Metallic / Mineral/Flinty / Numbing / Salt / Sour / Sweet / Umami / Umami/brothy: 15-point scale; for Atringent / Bitter / Metallic / Mineral/Flinty / Numbing / Salt / Sour / Sweet / Umami / Umami/brothy: solution
Protocol: Descriptive attributes (e.g., taste, flavor and chemical feeling factors) of three use levels of pGlu-Cys (FE-35), pGlu-Cys-Gly (FE-36), pGlu-Cys-Cys (FE-37), pGlu-Cys-Val (FE-38) and pGlu-Val-Cys (UE-30) flavor composition peptides were determined. The three use levels were as follows: 1.0 ppb, 10.0 ppb and 100.0 ppb.
Data was collected for the attributes of the product in-mouth for the use levels according to the following protocol: • The samples were analyzed for flavor by six to nine members of a panel, trained and experienced in flavor evaluation using the Spectrum™ method. Samples were evaluated across multiple panel sessions. • The strength of each attribute was rated on a 15-point scale, where 0=none and 15=very strong. • This scale incorporates the ability to use tenths of a point and therefore has the potential of 150 scale differentiations. • The scale may be expanded beyond 15 points to include extreme ratings if necessary.
A summary of the concentrations of NaCl, water and flavor composition peptides in the solution samples is described in table 24.
The panelists evaluated each sample for the attributes described by table 25.

[1] = 1.0 ppb in solution (NaCl, water)
[2] = 1.0 to 100 ppb, listed as UE 30
[3] = 10.0 ppb in solution (NaCl, water)
[4] = 100.0 ppb in solution (NaCl, water)

Substance: [pGlu]-Val-Cys [UE-30]
- Astringent, mean evaluation score in solution [1]: 0.0
- Bitter, mean evaluation score in solution [1]: 0.0
- Flinty/Mineral, mean evaluation score in solution [1]: 0.4
- Metallic, mean evaluation score in solution [1]: 0.0
- Numbing, mean evaluation score in solution [1]: 0.0
- Salt, mean evaluation score in solution [1]: 1.2
- Sour, mean evaluation score in solution [1]: 0.0
- Sweet, mean evaluation score in solution [1]: 0.0
- Umami FF, mean evaluation score in solution [1]: 0.1
- Umami, mean evaluation score in solution [1]: 0.0
- Mineral/Flinty aromatic in solution as the concentration increases (1.0 to 100 ppb): increases
- Salt perception level in solution as the concentration increases (1.0 to 100 ppb): increases slightly
- Umami aromatic in solution as the concentration increases (1.0 to 100 ppb): shows no distinct pattern
- Umami feeling factor in solution as the concentration increases (1.0 to 100 ppb): increases
- Mineral/Flinty aromatic in solution as the concentration increases [2]: increase slightly
- Salt perception level in solution as the concentration increases [2]: increase slightly
- Astringent, mean evaluation score in solution [3]: 0.0
- Bitter, mean evaluation score in solution [3]: 0.0
- Flinty/Mineral, mean evaluation score in solution [3]: 0.8
- Metallic, mean evaluation score in solution [3]: 0.0
- Numbing, mean evaluation score in solution [3]: 0.0
- Salt, mean evaluation score in solution [3]: 1.5
- Sour, mean evaluation score in solution [3]: 0.0
- Sweet, mean evaluation score in solution [3]: 0.0
- Umami FF, mean evaluation score in solution [3]: 0.6
- Umami, mean evaluation score in solution [3]: 0.4
- Astringent, mean evaluation score in solution [4]: 0.0
- Bitter, mean evaluation score in solution [4]: 0.7
- Flinty/Mineral, mean evaluation score in solution [4]: 1.1
- Metallic, mean evaluation score in solution [4]: 0.0
- Numbing, mean evaluation score in solution [4]: 0.0
- Salt, mean evaluation score in solution [4]: 1.8
- Sour, mean evaluation score in solution [4]: 0.0
- Sweet, mean evaluation score in solution [4]: 0.0
- Umami FF, mean evaluation score in solution [4]: 2.1
- Umami, mean evaluation score in solution [4]: 0.1
- Atringent (Concentration 1, MAX): 0.0
- Bitter (Concentration 1, MAX): 0.0
- Metallic (Concentration 1, MAX): 0.0
- Mineral/Flinty (Concentration 1, MAX): 0.5
- Numbing (Concentration 1, MAX): 0.0
- Salt (Concentration 1, MAX): 1.5
- Sour (Concentration 1, MAX): 0.0
- Sweet (Concentration 1, MAX): 0.0
- Umami (Concentration 1, MAX): 0.5
- Umami/brothy (Concentration 1, MAX): 0.0
- Atringent (Concentration 1, MEAN): 0.0
- Bitter (Concentration 1, MEAN): 0.0
- Metallic (Concentration 1, MEAN): 0.0
- Mineral/Flinty (Concentration 1, MEAN): 0.4
- Numbing (Concentration 1, MEAN): 0.0
- Salt (Concentration 1, MEAN): 1.2
- Sour (Concentration 1, MEAN): 0.0
- Sweet (Concentration 1, MEAN): 0.0
- Umami (Concentration 1, MEAN): 0.1
- Umami/brothy (Concentration 1, MEAN): 0.0
- Atringent (Concentration 1, MIN): 0.0
- Bitter (Concentration 1, MIN): 0.0
- Metallic (Concentration 1, MIN): 0.0
- Mineral/Flinty (Concentration 1, MIN): 0.0
- Numbing (Concentration 1, MIN): 0.0
- Salt (Concentration 1, MIN): 1.0
- Sour (Concentration 1, MIN): 0.0
- Sweet (Concentration 1, MIN): 0.0
- Umami (Concentration 1, MIN): 0.0
- Umami/brothy (Concentration 1, MIN): 0.0
- Atringent (Concentration 10, MAX): 0.0
- Bitter (Concentration 10, MAX): 0.0
- Metallic (Concentration 10, MAX): 0.0
- Mineral/Flinty (Concentration 10, MAX): 1.0
- Numbing (Concentration 10, MAX): 0.0
- Salt (Concentration 10, MAX): 2.0
- Sour (Concentration 10, MAX): 0.0
- Sweet (Concentration 10, MAX): 0.0
- Umami (Concentration 10, MAX): 1.0
- Umami/brothy (Concentration 10, MAX): 0.8
- Atringent (Concentration 10, MEAN): 0.0
- Bitter (Concentration 10, MEAN): 0.0
- Metallic (Concentration 10, MEAN): 0.0
- Mineral/Flinty (Concentration 10, MEAN): 0.8
- Numbing (Concentration 10, MEAN): 0.0
- Salt (Concentration 10, MEAN): 1.5
- Sour (Concentration 10, MEAN): 0.0
- Sweet (Concentration 10, MEAN): 0.0
- Umami (Concentration 10, MEAN): 0.6
- Umami/brothy (Concentration 10, MEAN): 0.4
- Atringent (Concentration 10, MIN): 0.0
- Bitter (Concentration 10, MIN): 0.0
- Metallic (Concentration 10, MIN): 0.0
- Mineral/Flinty (Concentration 10, MIN): 0.0
- Numbing (Concentration 10, MIN): 0.0
- Salt (Concentration 10, MIN): 1.0
- Sour (Concentration 10, MIN): 0.0
- Sweet (Concentration 10, MIN): 0.0
- Umami (Concentration 10, MIN): 0.0
- Umami/brothy (Concentration 10, MIN): 0.0
- Atringent (Concentration 100, MAX): 0.0
- Bitter (Concentration 100, MAX): 1.5
- Metallic (Concentration 100, MAX): 0.0
- Mineral/Flinty (Concentration 100, MAX): 1.5
- Numbing (Concentration 100, MAX): 0.0
- Salt (Concentration 100, MAX): 2.0
- Sour (Concentration 100, MAX): 0.0
- Sweet (Concentration 100, MAX): 0.0
- Umami (Concentration 100, MAX): 3.0
- Umami/brothy (Concentration 100, MAX): 0.5
- Atringent (Concentration 100, MEAN): 0.0
- Bitter (Concentration 100, MEAN): 0.7
- Metallic (Concentration 100, MEAN): 0.0
- Mineral/Flinty (Concentration 100, MEAN): 1.1
- Numbing (Concentration 100, MEAN): 0.0
- Salt (Concentration 100, MEAN): 1.8
- Sour (Concentration 100, MEAN): 0.0
- Sweet (Concentration 100, MEAN): 0.0
- Umami (Concentration 100, MEAN): 2.1
- Umami/brothy (Concentration 100, MEAN): 0.1
- Atringent (Concentration 100, MIN): 0.0
- Bitter (Concentration 100, MIN): 0.0
- Metallic (Concentration 100, MIN): 0.0
- Mineral/Flinty (Concentration 100, MIN): 0.8
- Numbing (Concentration 100, MIN): 0.0
- Salt (Concentration 100, MIN): 1.0
- Sour (Concentration 100, MIN): 0.0
- Sweet (Concentration 100, MIN): 0.0
- Umami (Concentration 100, MIN): 1.5
- Umami/brothy (Concentration 100, MIN): 0.0
